Assay results reported in a melting point compilation (Tetko et al.; mined from patent text by program, amines drawn as free bases though some values may be those of a salt).

| SMILES | melting point [°C] |
| --- | --- |
| CC(=O)Nc1cccnc1Cl | 81 to 83 |
| NNc1ccc(C(=O)c2ccccc2)cc1[N+](=O)[O-] | 163 to 164 |
| CC1(C)CCC(C)(C)c2c(C(O)C#C[Si](C)(C)C)cc(-c3ccccc3)cc21 (configuration not stated) | 145 |
| CCCN(CCC)c1nc2c(Cl)nccc2c(=O)[nH]1 | 180 |
| Fc1ccc(Oc2ncccc2COCc2ccccc2)cc1 | 49 to 50 |
| O=C(O)c1cc(S)n2ncnc2n1 | 230 to 232 |
| CCOCc1nc2c(N)nc3ccccc3c2n1NCCCNC(=O)C1CCCC1 | 75 to 77 |
| CC(C)(O)Cn1c(CO)nc2c(N)nc3cc(CCS(C)(=O)=O)ccc3c21 | 221 to 223 |
| COC(=O)c1cccc(C)c1[N+](=O)[O-] | 72 |
| Cc1ccc(-c2ccc3c(c2)C=C(C(=O)NC2CCN(CC4=CCCCCCC4)CC2)CCO3)cc1 | 148 to 151 |
| CC(C)(C)N=NC1(C(N)=O)CCCCC1 | 86 to 92 |
| CCCCCCCSc1ccc(-c2ccc(C#N)cc2)cc1 | 64.4 |
| Fc1cc(Cc2ccnc3c2Cc2ccccc2O3)ccn1 | 185 to 189 |
| COC1(c2cc(F)cc(Sc3ccc(C(=NO)c4nccs4)cc3)c2)CCOCC1 | 153 to 154 |
| O=C1C(=Cc2ccsc2)CCc2cc(OCCn3ccnc3)ccc21 | 61 to 62 |
| CN(C)Cc1cccc(-c2cc3c4c(ccn4C(=O)CNC3)c2)c1 | 98 to 100 |
| Cc1cc(C)cc(CC(=O)Nc2[nH]c(=O)[nH]c(=O)c2C(C)C)c1 | 126 to 127 |
| CCn1c(C)nc(N2CCc3ccccc3CC2)c(C#N)c1=O | 154 to 158 |
| O=C1CCN(CC(c2ccccc2)c2ccccc2)CC1 | 140 to 142 |
| COc1ccc(C(=O)c2c(F)cccc2F)c(Cl)c1Cl | 94 to 96 |
| CCOC(=O)C(=CC=CN(CC)CCO)S(=O)(=O)c1ccccc1 | 107 |
| Cn1ccnc1Sc1ccc(Nc2c(C#N)cnc3cc(-c4ccc(CN5CCOCC5)nc4)ccc23)cc1Cl | 233 to 235 |
| COC(=O)c1ccccc1-c1n[nH]c(-c2cccc(C(F)(F)F)c2)n1 | 110 to 112 |
| CCn1c(C)nc2cc(Sc3cccc4cnccc34)c([N+](=O)[O-])cc21 | 236 to 242 |
| O=C(c1ccccc1CBr)c1ccc(Cl)cc1CBr | 152 to 153 |
| O=C(O)c1cn(-c2ccc(F)cc2F)c2c(F)c(N3Cc4cccc(Cl)c4C3)c(F)cc2c1=O | 256 to 260 |

| SMILES | melting point [°C] |
| --- | --- |
| CCCCCCCCCCc1ccc(C(=O)O[C@@H]2CC[C@H](NC(=O)[C@H](OC)[C@H](O)[C@@H](O)[C@H](O)/C=C/C(C)(C)C)C(=O)NC2)cc1 | 60 to 64 |
| CC(=O)Nc1c(N(C)C)cnn(-c2ccccc2)c1=O | 186 to 187 |
| Nc1ncnc2c1sc(=O)n2C1OC(CO)C(O)C1O (configuration not stated) | 248 to 250 |
| COc1ccc(N2CCN(CC[C@H]3CC[C@H](NC(N)=O)CC3)CC2)c(Cl)c1Cl | 195 to 198 |
| FC(F)(F)c1ccc(-c2cc3[nH]ccn3n2)cc1 | 134 to 135 |
| Cc1ccnc(P(=O)(O)O)c1 | 273 |
| N#Cc1ccccc1OCCCC(=O)O | 127 to 128 |
| Cc1nnc2n1-c1ccccc1C(c1ccccc1Cl)=NC2 | 212 to 213 |
| CC(C)(C)OC(=O)[C@H](CSSC[C@H](NC(=O)OCc1ccccc1)C(=O)OC(C)(C)C)NC(=O)OCc1ccccc1 | 77 to 78 |
| CCc1nc2c(N)nc3ccccc3c2n1CC1(C(N)=O)CCC1 | 227 to 230 |
| CCCc1ccc(C(=O)Nc2ccc3sc(C)nc3c2Cl)cc1 | 184 |
| CONS(=O)(=O)c1cccc(Cl)c1 | 72 to 74.5 |
| CS(=O)c1c(C(F)(F)F)nn(-c2c(Cl)cc(C(F)(F)F)cc2Cl)c1N (configuration not stated) | 142 to 145 |
| Cc1cccc(NC(=O)NC2N=C(c3ccccc3F)c3ccccc3N(Cc3ccsc3)C2=O)c1 (racemic) | 221 to 223 |
| CCCCCCCCCCCCSCN(O)CSCCCCCCCCCCCC | 63 to 65 |
| O=CN(O)C(CS(=O)(=O)c1ccc(-c2ccc(C(F)(F)F)cc2)cc1)c1ccccn1 (configuration not stated) | 168 to 169 |
| Cc1ccc(CN2CCN(C3=NC4(C=CC(=O)C=C4)C(c4ccccc4)=C3)CC2)cc1 | 135 |
| CCCCCCCCCCCCCCCc1ccc(-c2nc(-c3ccccc3Cl)nn2C)cc1 | 62 to 65 |
| Fc1ccc(NC(=S)Nc2ncccc2OCc2c(F)cccc2Cl)cc1 | 146 to 148 |
| CCOC(=O)C(=CNc1ccc2nccnc2c1)C(=O)OCC | 112 to 114 |
| CC(=O)C1(OC(=O)CCl)CCC2C3CCC4=CC(=O)CCC4(C)C3CCC21C (configuration not stated) | 134 to 135 |
| Nc1sc2c(c1C(=O)c1ccc(-c3ccccc3)cc1)CCN(C(=O)OCc1ccccc1)C2 | 83 to 85 |
| CSC1C(=O)Nc2c(Oc3ccc4ccccc4c3)cccc21 (configuration not stated) | 174 to 175 |
| CCOc1cc2ncc(C#N)c(Nc3cccc(Cl)c3)c2cc1OCC | 188 to 190 |
| COC(=O)c1c[nH]c(C(=O)c2ccc(C)cc2)c1 | 155 to 159 |
| COc1ccccc1NC(=O)Nc1nc(N2CCOCC2)nc(N(CCC(=O)O)Cc2cccc(C)c2)n1 | 101 to 102 |

| SMILES | melting point [°C] |
| --- | --- |
| CC(Cc1ccc(Oc2cc(N3CCN(Cc4ccccc4)CC3)nc(NCc3ccccc3)n2)cc1)(Oc1ccccc1)C(=O)O (configuration not stated) | 104 to 106 |
| CCCc1nc(NCCO)nc(N2CCOCC2)n1 | 95 to 99 |
| CON(C)C(=O)Cc1ccc([N+](=O)[O-])cc1 | 75 to 75.5 |
| CSc1ccc2ccc(N)nc2n1 | 158 |
| Cc1ccccc1-c1ccc(C(=O)N2Cc3ccc(C(=O)NCc4cccc(N)c4)n3Cc3ccccc32)cc1C | 105 to 115 |
| Oc1nc(C2CC2)nc2c1SCCC2 | 249 to 250 |
| CCOC(=O)CC(c1ccccc1)c1ccc(NC(=O)NCCCl)cc1 (configuration not stated) | 109 to 111 |
| CS(=O)(=O)Nc1n[nH]c(-c2ccncc2)c1-c1ccc(F)cc1 | 168 to 170 |
| Nc1n[nH]c2ccc(Br)cc12 | 165 to 175 |
| ClC(Cl)(Cl)c1nc2ccccc2o1 | 102 |
| O=C(NCCN1CCOCC1)N1c2ccccc2-c2noc3c2C1CCC3 (configuration not stated) | 176 to 178 |
| CCCCN(C1c2cc(OCc3ccccc3)ccc2OC(C)(C)C1O)S(C)(=O)=O (configuration not stated) | 159 to 160 |
| CCCCCCCCCCCCCCCCSCC(CO)OC(=O)NC (configuration not stated) | 53 to 55 |
| CCC(O)CN1CCC(c2noc3cc(F)ccc23)CC1 (configuration not stated) | 87 to 88 |
| Oc1ccc(Nc2ccncc2)cc1 | 246 to 248 |
| CCC(=NO)c1ccncc1 | 141 to 144 |
| Cc1cc(N(C)C)ccc1C=Nc1cc(Cl)c(N=CN(C)C)c(Cl)c1 | 64 to 65 |
| Clc1cc(CBr)c2noc(-c3ccc(Br)cc3)c2c1 | 147 to 150 |
| O=C(Nc1ccc(C(F)(F)F)cc1)OC1CCCNC1 (configuration not stated) | 150 to 151 |
| CC1(C)C2CC[C@@]1(N1CCOCC1)[C@H](O)C2 | 35 to 36 |
| O=[N+]([O-])c1cccc2c(Cl)c(Cl)cnc12 | 123 |
| CCC(O)(CC)c1cccc(COc2ccc3c(-c4ccoc4)cc(C#N)cc3c2)n1 | 115 to 116 |
| CCOC(=O)N1CCN(c2nc(NC3CC3)ccc2F)CC1 | 68 to 70 |
| Cc1cc(=O)oc2c(C)c3c(cc12)CCCO3 | 162 to 163 |
| O=C(NCc1ccn(-c2cc3nc(C(=O)O)c(=O)[nH]c3cc2C(F)(F)F)c1)Nc1cccc(C(=O)O)c1 | 300 |
| N#Cc1cc(-c2ncccc2C(=O)O)ccc1OCCc1ccccc1Cl | 187 to 188 |

| SMILES | melting point [°C] |
| --- | --- |
| CCOC(=O)C(C)=C(C)NC(=O)Nc1cc(C(=O)OC(C)C)c(Cl)cc1F | 145 to 147 |
| CCCCCCCCN(C)C(=O)C(C)(C)n1cc(C)c(-c2ccccc2)n1 | 75 to 78 |
| CN1CCC(N=[N+]=[N-])(c2ccccc2)C(O)C1 (configuration not stated) | 170 to 171 |
| NC(=O)COc1ccc(OCCn2ccnc2)cc1 | 123 to 124 |
| O=C(O)C=CCCCc1cccc2cncn12 | 142 to 144 |
| COc1ccc2cc(CCCCC(O)CCc3cccnc3)ccc2c1 (configuration not stated) | 83 to 84 |
| CCc1ccc(Nc2c(F)c(F)cc(F)c2F)c(CC(=O)O)c1 | 165 to 169 |
| O=C(O)C=CC=CC=CC1=Cc2cc(-c3ccccc3)ccc2OC1 | 260 |
| Fc1ccc(C(c2ccccc2)(c2ccccc2F)n2ccnc2)cc1 (configuration not stated) | 164 to 167 |
| CS(=O)(=O)c1ccc(-c2ncccc2C(=O)c2cccc(F)c2)cc1 | 157 to 159 |
| Cc1ccc(O)c(Cn2ccnc2)n1 | 153 to 155 |
| O=[N+]([O-])c1cn2c(n1)O[C@@H](CN1CCN(Cc3ccc(C(F)(F)F)cc3)CC1)C2 | 149 to 150 |
| CC(=O)n1c2ccccc2c2ccccc21 | 70 to 71 |
| C#CCn1c(-c2ccccc2)nc(C#C)c(CC)c1=O | 134 to 136 |
| CC(C)C1OP(N(CCCCCCN(C2CC(C)(C)NC(C)(C)C2)P2OCC(C)(C)C(C(C)C)O2)C2CC(C)(C)NC(C)(C)C2)OCC1(C)C (configuration not stated) | 95 to 97 |
| CCOC(=O)CCCn1c(NC(=O)c2cccs2)nc2cc(C(=O)N(C)C3CCCCC3)ccc21 | 82 to 84 |
| CCC(CC)(CC(=O)Nc1ccc2ccc(OCc3ccc4ccccc4n3)cc2c1)C(=O)O | 190 to 191 |
| O=C1NCc2cc(C(c3ccccc3)n3ccnc3)ccc2N1 (configuration not stated) | 222 |
| [N-]=[N+]=Nc1cc(Oc2ccc3c(c2)CCN3C(=O)Nc2cccc(C(F)(F)F)c2)ncn1 | 167 to 168 |
| CN1CC(C#N)C(=O)c2cc3cc(F)c(F)cc3nc21 (configuration not stated) | 144 |
| CCn1c2s[nH]c(=O)c2c(=O)c2cc(F)c(N3CCN(c4ncccn4)CC3)c(OC(F)F)c21 | 259 to 262 |
| COc1ccc2c(c1)COc1c-2ccc2cc(OC)ccc12 | 175 to 178 |
| Cc1nc(C=O)cn1Cc1ccccc1 | 57 to 60 |
| Cc1ccc(Nc2ccc(Nc3ncnc4cc(-c5ccccc5)sc34)cc2)cc1 | 221 to 222 |
